Assay results reported in PMC9851200, “Multiparameter phenotypic screening for endogenous TFEB and TFE3 translocation identifies novel chemical series modulating lysosome function” (Autophagy, 2022).

Columns and labels:
Type in all cases: binding
[1] = target: kinases (KINOMEscan panel) (Homo sapiens, UniProt P08922); conditions: kinase ROS1; NEW KINOMEscan
[2] = target: kinases (KINOMEscan panel) (Homo sapiens, UniProt P10721, T670I/V559D); conditions: NEW KINOMEscan
[3] = target: T1, kinases (KINOMEscan panel) (Homo sapiens, UniProt P30530); conditions: AXL; NEW KINOMEscan
T1 sequence (P30530 26-894): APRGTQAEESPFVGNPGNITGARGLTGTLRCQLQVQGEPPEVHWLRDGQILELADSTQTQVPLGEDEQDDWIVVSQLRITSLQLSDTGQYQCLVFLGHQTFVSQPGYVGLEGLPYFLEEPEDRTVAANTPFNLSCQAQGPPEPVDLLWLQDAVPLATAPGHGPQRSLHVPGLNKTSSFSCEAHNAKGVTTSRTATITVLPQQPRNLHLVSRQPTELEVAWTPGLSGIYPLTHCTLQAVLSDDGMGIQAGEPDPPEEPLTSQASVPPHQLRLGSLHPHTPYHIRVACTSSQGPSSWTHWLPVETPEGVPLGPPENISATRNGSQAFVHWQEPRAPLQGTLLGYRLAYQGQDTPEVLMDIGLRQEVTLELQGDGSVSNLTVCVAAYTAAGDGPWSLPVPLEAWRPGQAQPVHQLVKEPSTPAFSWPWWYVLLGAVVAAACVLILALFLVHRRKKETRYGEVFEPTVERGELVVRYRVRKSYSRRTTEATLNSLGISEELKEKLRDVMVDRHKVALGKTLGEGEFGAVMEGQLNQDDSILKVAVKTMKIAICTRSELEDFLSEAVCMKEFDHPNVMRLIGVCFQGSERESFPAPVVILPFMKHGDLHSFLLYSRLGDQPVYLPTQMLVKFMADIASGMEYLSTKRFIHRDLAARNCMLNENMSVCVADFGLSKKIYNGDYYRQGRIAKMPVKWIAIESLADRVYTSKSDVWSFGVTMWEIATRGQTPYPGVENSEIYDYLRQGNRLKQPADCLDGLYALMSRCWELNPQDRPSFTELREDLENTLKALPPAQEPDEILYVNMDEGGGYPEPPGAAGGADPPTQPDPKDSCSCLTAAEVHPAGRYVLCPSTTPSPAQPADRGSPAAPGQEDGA

[4] = target: kinases (KINOMEscan panel) (Homo sapiens, UniProt P42336, E545A); conditions: NEW KINOMEscan
[5] = target: T2, kinases (KINOMEscan panel) (Homo sapiens, UniProt Q13546); conditions: kinase RIPK1; NEW KINOMEscan
T2 sequence (Q13546 1-671): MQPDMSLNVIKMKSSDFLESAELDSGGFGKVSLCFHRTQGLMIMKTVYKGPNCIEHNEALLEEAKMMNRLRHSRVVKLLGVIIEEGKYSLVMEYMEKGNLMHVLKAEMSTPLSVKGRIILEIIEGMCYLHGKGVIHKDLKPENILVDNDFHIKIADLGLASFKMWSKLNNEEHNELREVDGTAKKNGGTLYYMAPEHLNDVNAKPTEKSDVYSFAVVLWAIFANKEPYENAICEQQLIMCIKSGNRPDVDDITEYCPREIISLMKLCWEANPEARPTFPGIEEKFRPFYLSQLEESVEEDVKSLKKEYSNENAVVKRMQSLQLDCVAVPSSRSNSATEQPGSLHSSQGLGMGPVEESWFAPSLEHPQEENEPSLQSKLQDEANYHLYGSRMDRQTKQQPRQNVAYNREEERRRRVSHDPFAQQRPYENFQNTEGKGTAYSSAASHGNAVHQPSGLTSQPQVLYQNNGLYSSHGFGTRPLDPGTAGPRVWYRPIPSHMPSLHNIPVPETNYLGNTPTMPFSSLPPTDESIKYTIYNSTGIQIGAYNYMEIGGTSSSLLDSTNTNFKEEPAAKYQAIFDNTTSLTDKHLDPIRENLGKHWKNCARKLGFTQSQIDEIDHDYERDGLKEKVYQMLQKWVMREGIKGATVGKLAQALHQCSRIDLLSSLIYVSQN

[6] = target: kinases (KINOMEscan panel) (Homo sapiens, UniProt Q9BQI3)
Chain of kinases (KINOMEscan panel) (Homo sapiens, UniProt Q9BQI3) (Q9BQI3 whole entry): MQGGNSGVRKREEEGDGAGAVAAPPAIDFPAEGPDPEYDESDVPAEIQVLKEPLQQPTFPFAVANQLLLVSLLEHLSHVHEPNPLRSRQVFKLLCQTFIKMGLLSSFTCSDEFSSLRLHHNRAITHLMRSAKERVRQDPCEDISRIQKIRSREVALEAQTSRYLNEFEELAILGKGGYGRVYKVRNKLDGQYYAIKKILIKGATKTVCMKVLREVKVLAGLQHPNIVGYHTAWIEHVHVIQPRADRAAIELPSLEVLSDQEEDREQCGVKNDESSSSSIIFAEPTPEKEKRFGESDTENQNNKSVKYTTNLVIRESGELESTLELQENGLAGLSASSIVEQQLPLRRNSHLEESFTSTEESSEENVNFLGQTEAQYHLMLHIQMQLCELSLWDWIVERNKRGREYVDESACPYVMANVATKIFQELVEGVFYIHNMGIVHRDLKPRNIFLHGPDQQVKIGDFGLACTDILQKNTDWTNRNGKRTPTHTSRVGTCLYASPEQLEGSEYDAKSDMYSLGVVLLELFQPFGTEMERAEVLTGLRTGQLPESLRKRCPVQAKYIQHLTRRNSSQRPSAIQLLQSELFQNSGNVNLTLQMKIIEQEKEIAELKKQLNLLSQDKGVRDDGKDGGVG

[7] = target: kinases (KINOMEscan panel) (Homo sapiens, UniProt Q9BVS4); conditions: RIOK2; NEW KINOMEscan
Chain of kinases (KINOMEscan panel) (Homo sapiens, UniProt Q9BVS4) (Q9BVS4 whole entry): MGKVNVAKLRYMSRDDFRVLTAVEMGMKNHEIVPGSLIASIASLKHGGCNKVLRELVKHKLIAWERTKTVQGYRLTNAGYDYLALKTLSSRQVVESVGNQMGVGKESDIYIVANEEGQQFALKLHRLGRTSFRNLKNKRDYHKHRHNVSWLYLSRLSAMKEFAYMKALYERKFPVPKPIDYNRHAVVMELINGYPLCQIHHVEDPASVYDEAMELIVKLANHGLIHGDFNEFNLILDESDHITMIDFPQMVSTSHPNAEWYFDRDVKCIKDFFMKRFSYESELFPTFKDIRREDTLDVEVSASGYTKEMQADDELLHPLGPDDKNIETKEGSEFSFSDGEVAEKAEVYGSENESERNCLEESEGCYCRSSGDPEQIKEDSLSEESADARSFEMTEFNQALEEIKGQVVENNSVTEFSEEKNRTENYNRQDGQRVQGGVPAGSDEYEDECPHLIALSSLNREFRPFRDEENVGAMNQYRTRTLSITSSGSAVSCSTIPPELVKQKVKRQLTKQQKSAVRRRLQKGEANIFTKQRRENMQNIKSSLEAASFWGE

[8] = target: T3, kinases (KINOMEscan panel) (Homo sapiens, UniProt Q9NRM7); conditions: NEW KINOMEscan
T3 sequence (Q9NRM7 1-1088): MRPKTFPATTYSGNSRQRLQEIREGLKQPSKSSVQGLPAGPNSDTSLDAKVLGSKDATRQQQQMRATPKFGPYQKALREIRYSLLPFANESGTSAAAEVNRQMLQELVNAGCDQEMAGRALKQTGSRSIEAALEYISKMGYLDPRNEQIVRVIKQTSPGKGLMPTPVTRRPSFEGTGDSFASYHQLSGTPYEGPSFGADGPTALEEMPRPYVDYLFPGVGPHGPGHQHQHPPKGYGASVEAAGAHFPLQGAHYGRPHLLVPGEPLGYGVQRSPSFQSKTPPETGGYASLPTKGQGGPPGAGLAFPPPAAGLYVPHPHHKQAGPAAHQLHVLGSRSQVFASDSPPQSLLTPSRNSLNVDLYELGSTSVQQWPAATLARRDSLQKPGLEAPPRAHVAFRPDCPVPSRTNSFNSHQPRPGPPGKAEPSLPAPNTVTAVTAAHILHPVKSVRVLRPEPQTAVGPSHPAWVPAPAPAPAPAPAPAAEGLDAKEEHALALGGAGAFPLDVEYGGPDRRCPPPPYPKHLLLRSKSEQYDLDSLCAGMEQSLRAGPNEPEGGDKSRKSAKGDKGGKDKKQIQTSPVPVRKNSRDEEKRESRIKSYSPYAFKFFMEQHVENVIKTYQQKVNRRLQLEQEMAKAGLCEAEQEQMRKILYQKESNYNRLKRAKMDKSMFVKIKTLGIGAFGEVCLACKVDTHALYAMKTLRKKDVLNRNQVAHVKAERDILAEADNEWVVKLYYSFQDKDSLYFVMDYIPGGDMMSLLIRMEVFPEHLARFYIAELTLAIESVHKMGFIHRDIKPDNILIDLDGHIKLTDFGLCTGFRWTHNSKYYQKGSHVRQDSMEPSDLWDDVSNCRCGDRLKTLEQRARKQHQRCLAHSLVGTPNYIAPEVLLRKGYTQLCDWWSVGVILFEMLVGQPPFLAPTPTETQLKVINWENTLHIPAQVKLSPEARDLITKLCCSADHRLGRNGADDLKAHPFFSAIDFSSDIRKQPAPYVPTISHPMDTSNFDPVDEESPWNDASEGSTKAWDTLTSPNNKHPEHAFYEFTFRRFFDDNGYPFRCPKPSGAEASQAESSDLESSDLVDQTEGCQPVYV

Chain of kinases (KINOMEscan panel) (Homo sapiens, UniProt P08922) (P08922 28-2347): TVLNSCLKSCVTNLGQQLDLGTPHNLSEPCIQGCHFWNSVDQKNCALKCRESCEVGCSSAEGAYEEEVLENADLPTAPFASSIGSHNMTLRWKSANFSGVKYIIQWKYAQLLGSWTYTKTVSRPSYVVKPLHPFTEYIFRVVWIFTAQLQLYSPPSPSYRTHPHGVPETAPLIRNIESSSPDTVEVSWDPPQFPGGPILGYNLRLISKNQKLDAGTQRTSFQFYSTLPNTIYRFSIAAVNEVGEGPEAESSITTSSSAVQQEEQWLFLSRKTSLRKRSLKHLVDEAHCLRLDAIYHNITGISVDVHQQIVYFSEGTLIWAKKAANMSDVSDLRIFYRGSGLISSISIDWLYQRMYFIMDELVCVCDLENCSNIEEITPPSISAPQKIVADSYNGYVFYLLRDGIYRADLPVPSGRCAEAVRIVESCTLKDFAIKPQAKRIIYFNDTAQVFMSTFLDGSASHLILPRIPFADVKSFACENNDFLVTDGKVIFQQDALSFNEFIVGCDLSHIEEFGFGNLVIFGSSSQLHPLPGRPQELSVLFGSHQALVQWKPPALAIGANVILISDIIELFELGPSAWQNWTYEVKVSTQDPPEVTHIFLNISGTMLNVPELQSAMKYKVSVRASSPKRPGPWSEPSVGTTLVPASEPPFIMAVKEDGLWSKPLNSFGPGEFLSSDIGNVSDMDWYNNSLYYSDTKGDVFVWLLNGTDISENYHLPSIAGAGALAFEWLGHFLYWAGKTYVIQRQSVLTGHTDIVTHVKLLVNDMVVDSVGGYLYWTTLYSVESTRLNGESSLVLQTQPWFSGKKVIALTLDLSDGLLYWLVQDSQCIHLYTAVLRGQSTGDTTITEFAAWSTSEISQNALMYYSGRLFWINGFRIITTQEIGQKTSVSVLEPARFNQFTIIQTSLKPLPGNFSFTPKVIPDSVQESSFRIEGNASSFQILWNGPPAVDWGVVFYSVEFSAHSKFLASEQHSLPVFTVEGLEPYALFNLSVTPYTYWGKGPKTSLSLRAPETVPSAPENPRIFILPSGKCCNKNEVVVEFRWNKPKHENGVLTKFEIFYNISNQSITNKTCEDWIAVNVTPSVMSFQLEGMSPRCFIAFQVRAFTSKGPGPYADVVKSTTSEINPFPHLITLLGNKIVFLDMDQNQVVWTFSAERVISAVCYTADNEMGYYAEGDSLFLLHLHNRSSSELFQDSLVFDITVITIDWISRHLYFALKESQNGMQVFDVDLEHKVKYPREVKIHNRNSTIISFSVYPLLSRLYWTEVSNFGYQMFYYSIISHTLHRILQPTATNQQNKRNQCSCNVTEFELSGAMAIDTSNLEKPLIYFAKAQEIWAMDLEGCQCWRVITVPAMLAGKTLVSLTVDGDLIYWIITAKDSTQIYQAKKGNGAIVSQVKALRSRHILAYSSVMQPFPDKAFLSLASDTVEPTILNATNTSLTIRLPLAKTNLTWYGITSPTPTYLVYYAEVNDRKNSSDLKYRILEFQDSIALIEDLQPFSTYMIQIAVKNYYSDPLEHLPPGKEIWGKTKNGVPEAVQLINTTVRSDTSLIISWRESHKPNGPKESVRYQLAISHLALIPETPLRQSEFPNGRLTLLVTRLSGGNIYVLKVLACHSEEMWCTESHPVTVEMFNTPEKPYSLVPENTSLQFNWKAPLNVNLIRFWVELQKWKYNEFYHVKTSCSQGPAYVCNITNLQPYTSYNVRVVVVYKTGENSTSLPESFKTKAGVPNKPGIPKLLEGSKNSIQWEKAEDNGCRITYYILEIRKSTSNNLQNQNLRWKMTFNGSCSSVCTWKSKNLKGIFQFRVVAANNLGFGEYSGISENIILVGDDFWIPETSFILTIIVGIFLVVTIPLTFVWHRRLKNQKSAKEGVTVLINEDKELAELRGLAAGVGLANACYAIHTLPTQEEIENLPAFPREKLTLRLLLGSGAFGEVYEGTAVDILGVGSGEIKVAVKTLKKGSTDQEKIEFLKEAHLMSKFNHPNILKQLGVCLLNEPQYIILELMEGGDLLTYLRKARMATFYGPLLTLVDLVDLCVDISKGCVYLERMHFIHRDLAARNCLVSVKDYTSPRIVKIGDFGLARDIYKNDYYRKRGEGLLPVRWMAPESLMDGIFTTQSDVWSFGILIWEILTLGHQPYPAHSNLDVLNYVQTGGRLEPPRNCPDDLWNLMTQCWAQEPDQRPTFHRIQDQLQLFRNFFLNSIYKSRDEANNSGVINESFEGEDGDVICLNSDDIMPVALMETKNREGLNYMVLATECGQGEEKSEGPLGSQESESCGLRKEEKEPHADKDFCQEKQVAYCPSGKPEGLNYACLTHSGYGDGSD
Chain of kinases (KINOMEscan panel) (Homo sapiens, UniProt P10721, T670I/V559D) (P10721 26-976 V559D/T670I): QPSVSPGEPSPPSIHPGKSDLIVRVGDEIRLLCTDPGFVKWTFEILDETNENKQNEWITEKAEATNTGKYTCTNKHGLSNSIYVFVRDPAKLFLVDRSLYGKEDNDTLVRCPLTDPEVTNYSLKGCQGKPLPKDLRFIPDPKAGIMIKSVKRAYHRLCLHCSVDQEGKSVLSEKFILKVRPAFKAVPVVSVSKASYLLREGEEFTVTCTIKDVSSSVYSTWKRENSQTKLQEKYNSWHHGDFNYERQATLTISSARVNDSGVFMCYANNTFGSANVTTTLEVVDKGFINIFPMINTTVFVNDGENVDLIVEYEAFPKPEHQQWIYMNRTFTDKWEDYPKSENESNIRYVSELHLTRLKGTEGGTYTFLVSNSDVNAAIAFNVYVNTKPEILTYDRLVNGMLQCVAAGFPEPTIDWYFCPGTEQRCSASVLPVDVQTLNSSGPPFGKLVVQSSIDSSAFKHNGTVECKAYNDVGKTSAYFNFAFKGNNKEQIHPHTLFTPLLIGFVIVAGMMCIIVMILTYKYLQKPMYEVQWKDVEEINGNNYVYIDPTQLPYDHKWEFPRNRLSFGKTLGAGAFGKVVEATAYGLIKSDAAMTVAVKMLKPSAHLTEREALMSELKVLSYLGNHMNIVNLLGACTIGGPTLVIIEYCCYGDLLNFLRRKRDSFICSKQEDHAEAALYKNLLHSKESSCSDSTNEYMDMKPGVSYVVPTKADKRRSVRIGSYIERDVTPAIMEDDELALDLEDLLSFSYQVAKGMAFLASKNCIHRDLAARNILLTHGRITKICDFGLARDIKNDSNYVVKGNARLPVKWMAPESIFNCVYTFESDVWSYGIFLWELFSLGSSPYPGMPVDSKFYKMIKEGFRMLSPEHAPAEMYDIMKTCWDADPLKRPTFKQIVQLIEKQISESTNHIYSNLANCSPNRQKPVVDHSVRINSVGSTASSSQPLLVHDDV

Row | Compound | KINOMEscan ROS1 [1] | KINOMEscan KIT(V559D,T670I) [2] | KINOMEscan AXL [3] | KINOMEscan PIK3CA(E545A) [4] | KINOMEscan RIPK1 [5] | KINOMEscan ElF2AK2/EIF2AK1 [6] | KINOMEscan RIOK2 [7] | KINOMEscan LATS2 [8]
1 | Cc1cccc(-c2nc(Nc3ccc4nn(C)cc4c3)c3ccccc3n2)n1 [NK167] | 0 | 13 | 0 | 31 | 2 | 0 | 3 | 19
2 | Cc1cccc(-c2nc(N(C)c3ccc4ncsc4c3)c3ccccc3n2)n1 [NK-161] | 0 | 14 | 0 | 14 | 0 | 1 | 3 | 26
